# Measurements: patent publication US20070249590A1, “Substituted indolo[2,3-a]pyrrolo[3,4-c]carbazole compounds useful in treating kinase disorders” (priority 2005, published 2007)
# Target: T1, JAK3 (JH1 and JH2 domain) (Homo sapiens, UniProt P52333)
# T1 sequence (P52333 521-1111 limits assumed): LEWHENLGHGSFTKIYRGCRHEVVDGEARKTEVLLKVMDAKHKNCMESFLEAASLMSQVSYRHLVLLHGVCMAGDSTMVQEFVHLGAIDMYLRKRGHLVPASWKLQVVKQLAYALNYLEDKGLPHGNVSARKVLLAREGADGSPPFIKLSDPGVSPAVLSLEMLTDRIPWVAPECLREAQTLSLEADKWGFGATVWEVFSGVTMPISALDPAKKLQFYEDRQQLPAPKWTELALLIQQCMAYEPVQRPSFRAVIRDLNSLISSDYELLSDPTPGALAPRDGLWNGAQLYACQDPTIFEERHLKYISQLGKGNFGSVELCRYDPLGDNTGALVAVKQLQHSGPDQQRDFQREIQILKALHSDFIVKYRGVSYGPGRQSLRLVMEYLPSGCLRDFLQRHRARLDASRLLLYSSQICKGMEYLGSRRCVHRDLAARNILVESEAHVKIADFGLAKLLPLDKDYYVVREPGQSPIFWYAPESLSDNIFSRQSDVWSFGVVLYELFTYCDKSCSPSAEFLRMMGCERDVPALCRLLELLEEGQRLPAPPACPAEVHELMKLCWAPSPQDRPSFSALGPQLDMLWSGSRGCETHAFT
# Assay: JAK3 Kinase Assay (ELISA of peptide substrate phosphorylation)
# Type: biochemical
# Settings: purified JAK3 enzyme, 10 μM ATP, biotinylated peptide substrate, 1 hour at room temperature
# Procedure, shortened: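 Sf21-baculovirus-expressed JAK3 (JH1+JH2), glutathione-bead purified, with biotinylated peptide substrate (in buffer containing 10 μM ATP) in HEPES pH 7.5/MgCl2/DTT, 1 h RT. Product was captured on Neutravidin, detected with HRP anti-phosphotyrosine (PY99)/TMB, OD 450/650 nm. Triplicate 16-point half-log series from 200 μM gave IC50; otherwise % inhibition at 1 μM.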
row,Compound,IC50
1,"O=C1NCc2c1c1c3ccccc3n3c1c1c2c2ccccc2n1CCC(OC(=O)N1CCN(c2ccncc2)CC1)CC3 (centres unmarked) [Cpd 184, 12,13-{3-[(4-pyridin-4-yl-piperazin-1-yl)carbonyloxy]-pentan-1,5-yl}-6,7,12,13-tetrahydro-5-oxo-5H-indolo[2,3-a]pyrrolo[3,4-c]carbazole]",4360 nM
2,"CN(C)C1CCN(C(=O)OC2Cn3c4ccccc4c4c5c(c6c7ccccc7n(c6c43)CC2O)C(=O)NC5=O)C1 (centres unmarked) [Cpd 100, 12,13-{2-[(3-dimethyl-pyrrolidin-1-yl)carbonyloxy]-3-hydroxy-butan-1,4-yl}-12,13-dihydro-5,7-dioxo-6H-indolo[2,3-a]pyrrolo[3,4-c]carbazole]",173 nM
3,"O=C1NC(=O)c2c1c1c3ccccc3n3c1c1c2c2ccccc2n1CC(OC(=O)N1CCN(Cc2ccccc2)CC1)CC3 (centres unmarked) [Cpd 44, 12,13-{2-[(4-benzyl-piperazin-1-yl)carbonyloxy]-butan-1,4-yl}-12,13-dihydro-5,7-dioxo-6H-indolo[2,3-a]pyrrolo[3,4-c]carbazole]",122 nM
4,"O=C1NCc2c1c1c3ccccc3n3c1c1c2c2ccccc2n1C/C=C\C3 [Cpd 2, 12,13-(but-2-en-1,4-yl)-6,7,12,13-tetrahydro-5-oxo-5H-indolo[2,3-a]pyrrolo[3,4-c]carbazole]",40 nM
5,"CC(C)(C)OC(=O)NC1CCN(C(=O)OCC2Cn3c4ccccc4c4c5c(c6c7ccccc7n(c6c43)C2)C(=O)NC5)CC1 (centres unmarked) [Cpd 172, 12,13-(2-{[4-(t-butoxycarbonylamino)piperidin-1-yl]carbonyloxymethyl}-propan-1,3-yl)-6,7,12,13-tetrahydro-5-oxo-5H-indolo[2,3-a]pyrrolo[3,4-c]carbazole]",120 nM
6,"O=C(NC1CCN(Cc2ccccc2)CC1)OCC1Cn2c3ccccc3c3c4c(c5c6ccccc6n(c5c32)C1)C(=O)NC4 (centres unmarked) [Cpd 163, 12,13-{2-[(1-benzyl-piperidin-4-yl)carbamoyloxymethyl]-propan-1,3-yl}-6,7,12,13-tetrahydro-5-oxo-5H-indolo[2,3-a]pyrrolo[3,4-c]carbazole]",~1000 nM
7,"O=C1NCc2c1c1c3cc(Br)ccc3n3c1c1c2c2ccccc2n1CC(O)C(O)C3 (centres unmarked) [Cpd 188, 3-bromo-12,13-(2,3-dihydroxy-butan-1,4-yl)-6,7,12,13-tetrahydro-5-oxo-5H-indolo[2,3-a]pyrrolo[3,4-c]carbazole]",34 nM
8,"O=C1NC(=O)c2c1c1c3ccccc3n3c1c1c2c2ccccc2n1CC(OC(=O)N1CCN(C(c2ccccc2)c2ccccc2)CC1)CC3 (centres unmarked) [Cpd 62, 12,13-{2-[(4-benzhydryl-piperazin-1-yl)carbonyloxy]-butan-1,4-yl}-12,13-dihydro-5,7-dioxo-6H-indolo[2,3-a]pyrrolo[3,4-c]carbazole]",496 nM
9,"O=C1NCc2c1c1c3cc(Cn4ccnc4)ccc3n3c1c1c2c2ccccc2n1CC(O)C(O)C3 (centres unmarked) [Cpd 202, 3-(imidazol-1-ylmethyl)-12,13-(2,3-dihydroxy-butan-1,4-yl)-6,7,12,13-tetrahydro-5-oxo-5H-indolo[2,3-a]pyrrolo[3,4-c]carbazole]",103 nM
10,"COc1ccc2[nH]cc(CCNC(=O)OC3Cn4c5ccccc5c5c6c(c7c8ccccc8n(c7c54)CC3O)C(=O)NC6=O)c2c1 (centres unmarked) [Cpd 87, 12,13-(2-{[2-(5-methoxy-1H-indol-3-yl)ethyl]carbamoyloxy}-3-hydroxy-butan-1,4-yl)-12,13-dihydro-5,7-dioxo-6H-indolo[2,3-a]pyrrolo[3,4-c]carbazole]",169 nM
11,"CN1CCN(CCCNC(=O)OC2CCCn3c4ccccc4c4c5c(c6c7ccccc7n(c6c43)C2)C(=O)NC5=O)CC1 (centres unmarked) [Cpd 116, 12,13-(2-{[3-(4-methyl-piperazin-1-yl)prop-1-yl]carbamoyloxy}-pentan-1,5-yl)-12,13-dihydro-5,7-dioxo-6H-indolo[2,3-a]pyrrolo[3,4-c]carbazole]",> 200 nM
12,"O=C1NC(=O)c2c1c1c3cc(Br)ccc3n3c1c1c2c2ccccc2n1CC(O)CC3 (centres unmarked) [Cpd 31, 3-bromo-12,13-(2-hydroxy-butan-1,4-yl)-12,13-dihydro-5,7-dioxo-6H-indolo[2,3-a]pyrrolo[3,4-c]carbazole]",8 nM
13,"CN(C)c1ccc(CNC(=O)OC2Cn3c4ccccc4c4c5c(c6c7ccccc7n(c6c43)CC2O)C(=O)NC5=O)cc1 (centres unmarked) [Cpd 93, 12,13-{2-[(4-dimethylamino-benzyl)carbamoyloxy]-3-hydroxy-butan-1,4-yl}-12,13-dihydro-5,7-dioxo-6H-indolo[2,3-a]pyrrolo[3,4-c]carbazole]",65 nM
14,"O=C1NC(=O)c2c1c1c3ccccc3n3c1c1c2c2ccccc2n1CC(OC(=O)N1CCN(C2CCCCC2)CC1)C(O)C3 (centres unmarked) [Cpd 101, 12,13-{2-[(4-cyclohexyl-piperazin-1-yl)carbonyloxy]-3-hydroxy-butan-1,4-yl}-12,13-dihydro-5,7-dioxo-6H-indolo[2,3-a]pyrrolo[3,4-c]carbazole]",1100 nM
15,"O=C(NCc1ccc2c(c1)OCO2)OC1Cn2c3ccccc3c3c4c(c5c6ccccc6n(c5c32)CC1O)C(=O)NC4=O (centres unmarked) [Cpd 80, 12,13-{2-[(benzo[1,3]dioxol-5-yl-methyl)carbamoyloxy]-3-hydroxy-butan-1,4-yl}-12,13-dihydro-5,7-dioxo-6H-indolo[2,3-a]pyrrolo[3,4-c]carbazole]",100 nM
16,"O=C1NCc2c1c1c3ccccc3n3c1c1c2c2ccccc2n1CC(COC(=O)N1CCN(Cc2ccc4c(c2)OCO4)CC1)C3 (centres unmarked) [Cpd 170, 12,13-(2-{[4-(benzo[1,3]dioxol-5-ylmethyl)piperazin-1-yl]carbonyloxymethyl}-propan-1,3-yl}-6,7,12,13-tetrahydro-5-oxo-5H-indolo[2,3-a]pyrrolo[3,4-c]carbazole]",202 nM
17,"O=C(NCCCN1CCOCC1)OCC1Cn2c3ccccc3c3c4c(c5c6ccccc6n(c5c32)C1)C(=O)NC4 (centres unmarked) [Cpd 165, 12,13-{2-[(3-morpholin-4-yl-prop-1-yl)carbamoyloxymethyl]-propan-1,3-yl}-6,7,12,13-tetrahydro-5-oxo-5H-indolo[2,3-a]pyrrolo[3,4-c]carbazole]",278 nM
18,"O=C1NC(=O)c2c1c1c3ccccc3n3c1c1c2c2ccccc2n1CC(OC(=O)N1CCN(c2ccncc2)CC1)C(O)C3 (centres unmarked) [Cpd 96, 12,13-{2-[(4-pyridin-4-yl-piperazin-1-yl)carbonyloxy]-3-hydroxy-butan-1,4-yl}-12,13-dihydro-5,7-dioxo-6H-indolo[2,3-a]pyrrolo[3,4-c]carbazole]",295 nM
19,"CC(C)NC(=O)OC1CCn2c3ccccc3c3c4c(c5c6ccccc6n(c5c32)C1)C(=O)NC4=O (centres unmarked) [Cpd 39, 12,13-[2-(prop-2-ylcarbamoyloxy)-butan-1,4-yl]-12,13-dihydro-5,7-dioxo-6H-indolo[2,3-a]pyrrolo[3,4-c]carbazole]",31 nM
20,"O=C(NC1CCNCC1)OC1CCn2c3ccccc3c3c4c(c5c6ccccc6n(c5c32)C1)C(=O)NC4=O (centres unmarked) [Cpd 75, 12,13-[2-(piperidin-4-yl-carbamoyloxy)-butan-1,4-yl]-12,13-dihydro-5,7-dioxo-6H-indolo[2,3-a]pyrrolo[3,4-c]carbazole]",35 nM
21,"O=C1NCc2c1c1c3ccccc3n3c1c1c2c2ccccc2n1CC(CO)C3 (centres unmarked) [Cpd 23, 12,13-(2-hydroxymethyl-propan-1,3-yl)-6,7,12,13-tetrahydro-5-oxo-5H-indolo[2,3-a]pyrrolo[3,4-c]carbazole]",22 nM
22,"COc1ccccc1CNC(=O)OCC1(O)Cn2c3ccccc3c3c4c(c5c6ccccc6n(c5c32)C1)C(=O)NC4 (centres unmarked) [Cpd 174, 12,13-{2-hydroxy-2-[(2-methoxy-benzyl)carbamoyloxymethyl]-propan-1,3-yl}-6,7,12,13-tetrahydro-5-oxo-5H-indolo[2,3-a]pyrrolo[3,4-c]carbazole]",166 nM
23,"O=C1NC(=O)c2c1c1c3ccccc3n3c1c1c2c2ccccc2n1CC(O)(C(=O)N1CCN(c2ccc(O)cc2)CC1)C(O)C3 (centres unmarked) [Cpd 129, 12,13-(2-{[4-(4-hydroxy-phenyl)piperazin-1-yl]carbonyl}-2,3-dihydroxy-butan-1,4-yl)-12,13-dihydro-5,7-dioxo-6H-indolo[2,3-a]pyrrolo[3,4-c]carbazole]",67 nM
24,"O=C(NCCCn1ccnc1)OC1CCn2c3ccccc3c3c4c(c5c6ccccc6n(c5c32)C1)C(=O)NC4=O (centres unmarked) [Cpd 36, 12,13-{2-[(3-imidazol-1-yl-prop-1-yl)carbamoyloxy]-butan-1,4-yl}-12,13-dihydro-5,7-dioxo-6H-indolo[2,3-a]pyrrolo[3,4-c]carbazole]",30 nM
25,"O=C1NCc2c1c1c3ccccc3n3c1c1c2c2ccccc2n1CC(O)(COC(=O)N1CCN(c2ccncc2)CC1)C3 (centres unmarked) [Cpd 144, 12,13-{2-hydroxy-2-[(4-pyridin-4-yl-piperazin-1-yl)carbonyloxymethyl]-propan-1,3-yl}-6,7,12,13-tetrahydro-5-oxo-5H-indolo[2,3-a]pyrrolo[3,4-c]carbazole]",886 nM
26,"O=C(NCCCN1CCCC1=O)OC1Cn2c3ccccc3c3c4c(c5c6ccccc6n(c5c32)CC1O)C(=O)NC4=O (centres unmarked) [Cpd 79, 12,13-(2-{[3-(2-oxo-pyrrolidin-1-yl)prop-1-yl]carbamoyloxy}-3-hydroxy-butan-1,4-yl)-12,13-dihydro-5,7-dioxo-6H-indolo[2,3-a]pyrrolo[3,4-c]carbazole]",48 nM
